Assay results from patent US20230129095A1, “PEPTIDE INHIBITORS OF INTERLEUKIN-23 RECEPTOR AND THEIR USE TO TREAT INFLAMMATORY DISEASES” (Protagonist Therapeutics, Inc., priority 2020, published 2023).
pIC50: −log10 of the molar value. *1 amine or outer side, *2 acyl side, *3 side chain or, on linkers, in order; H or OH if unused. Where a SMILES comes first, the peptide text is derived from it. Bridges are numbered along the chain shown (N, C = ends). [ ]: non-standard residue; d: D form. X1 = O=C([C@H](Cc1c[nH]c2c(-c3cccc(C(F)(F)F)c3)cccc12)N[*:1])[*:2]; X2 = O=C([C@H](Cc1c[nH]c2c(-c3ccc(F)cc3)cccc12)N[*:1])[*:2]; X3 = Cc1cccc(-c2cccc3c(C[C@H](N[*:1])C(=O)[*:2])c[nH]c23)c1; Trp(7-Ph) = N[C@@H](Cc1c[nH]c2c(-c3ccccc3)cccc12)C(=O)O; Ala(quinolin-3-yl) = N[C@@H](Cc1cnc2ccccc2c1)C(=O)O; Abu(4-yl) = O=C([C@H](CC[*:3])N[*:1])[*:2]; 2Nal = N[C@@H](Cc1ccc2ccccc2c1)C(=O)O; AEF = NCCOc1ccc(C[C@H](N)C(=O)O)cc1; Pen = CC(C)(S)[C@H](N)C(=O)O; αMeK = C[C@](N)(CCCCN)C(=O)O; Thp = NC1(C(=O)O)CCOCC1

What was measured:
[1] = system: Natural killer (NK) cells; assay type: cell-based, human
Description: Where not shown, data was not yet determined.

[2] = Stability in cynomolgus monkey fecal homogenate (anaerobic); assay type: in vitro ADME; conditions: pH 6.8, 20% cynomolgus monkey fecal homogenate, 37° C., up to 24 hours, read-out: t1/2: Monkey Feces anaerobic (converted)
Method: (§1) Studies were carried out in human or cynomolgus monkey fecal homogenate to evaluate gastrointestinal stability of the peptide inhibitors of the present invention.
(§2) Fecal homogenate ([…]) was prepared by adding 4 mL of growth medium (1 liter contains 2 g peptone water powder, 2 g yeast extract, 0.1 g NaCl, 0.04 g KH2PO4, 0.01 g CaCl2.6H2O, 0.01 g MgSO4.7H2O, 2 mL Tween 80, 0.5 g bile salts, 0.5 g L-cysteine HCl, 2 g NaHCO3, and 10 μL Vitamin K, pH adjusted to 6.8, and sterilized by filtration through a 0.22 μm filter) to every gram of feces (pooled freshly collected human or cynomolgus monkey feces). The suspension was vortexed to break up large clumps, and homogenized using a bead mill homogenizer. Centrifuged the homogenate at 2800×g for 15 min. The supernatant is taken out and used for incubations. DMSO stocks (10 mM) were first prepared for the test compounds. Incubations were performed in an anaerobic chamber conditioned at 37° C. Aliquots of the DMSO solutions were dosed into 1.0 mL aliquots of 20% fecal homogenate, which are pre-warmed to 37° C. The final test compound concentration was 20 μM. At each timepoint (0, 20 min, 1, 3, 6, or 24 hours), 100 μL aliquot of each incubation mixture is taken out and added to separate tubes containing 300 μL of 50% acetonitrile/50% methanol and an internal standard to terminate the reaction. Samples were taken out of the anaerobic chamber and stored at 4° C. until the end of the experiment. After the final timepoint is sampled, the tubes were mixed and then centrifuged at 3,000 rpm for 10 minutes. Aliquots of the supernatant were removed, diluted 1:1 into distilled water containing 0.1% formic acid, and analyzed by LC/MS/MS. Percent remaining at each timepoint was calculated based on the peak area response ratio of test to compound to internal standard. Time 0 was set to 100%, and all later timepoints were calculated relative to time 0. Half-lives were calculated by fitting to a first-order exponential decay equation using Graphpad or Excel.

Stability in rat plasma = assay type: in vitro ADME; conditions: both sexes, SD rat plasma, EDTA, 37° C., up to 24 hours, read-out: t1/2: Rat Plasma EDTA
Method: Peptides of interest (20 μM) were incubated with pre-warmed rat plasma (SD rat, mixed gender pooled, EDTA, filtered through 0.22 μm, BioreclamationIVT) at 37° C. Aliquots were taken at various time points up to 24 hours (e.g. 0, 0.25, 1, 3, 6 and 24 hr), and immediately quenched with 4 volumes of organic solvent (acetonitrile/methanol (1:1) and 0.1% formic acid, containing 1 μM internal standard). Quenched samples were stored at 4° C. until the end of the experiment and centrifuged at 4,000 rpm for 10 minutes. The supernatant were diluted 1:1 with deionized water and analyzed using LC-MS. Percentage remaining at each time point was calculated based on the peak area ratio (analyte over internal standard) relative to the initial level at time zero. Half-lives were calculated by fitting to a first-order exponential decay equation using GraphPad.

[3] = Stability in simulated intestinal fluid (SIF); assay type: in vitro ADME; conditions: 37° C.; for SIF t1/2: 100 fold dilution of standard SIF concentration, 20 μM
Method: Studies were carried out in simulated intestinal fluid (SIF) and simulated gastric fluid (SGF) to evaluate gastric stability of the peptide inhibitors of the present invention. In addition, studies were carried out to assess redox stability of the peptide inhibitors of the present invention.
SIF was prepared by adding 6.8 g of monobasic potassium phosphate and 10.0 g of pancreatin to 1.0 L of water. After dissolution, the pH was adjusted to 6.8 using NaOH. DMSO stocks (2 mM) were first prepared for the test compounds. Aliquots of the DMSO solutions were dosed into 6 individual tubes, each containing 0.5 mL of SIF, which is pre-warmed to 37° C. The final test compound concentration was 20 μM. The vials were kept in a benchtop Thermomixer® for the duration of the experiment. At each timepoint (0, 5, 10, 20, 40, 60, or 360 minutes or 24 hours), 1.0 mL of acetonitrile containing 1% formic acid was added to one vial to terminate the reaction. Samples were stored at 4° C. until the end of the experiment. After the final timepoint is sampled, the tubes were mixed and then centrifuged at 3,000 rpm for 10 minutes. Aliquots of the supernatant were removed, diluted 1:1 into distilled water containing internal standard, and analyzed by LCMS/MS. Percent remaining at each timepoint was calculated based on the peak area response ratio of test to compound to internal standard. Time 0 was set to 100%, and all later timepoints were calculated relative to time 0. Half-lives were calculated by fitting to a first-order exponential decay equation using Graphpad.

[4] = Stability in human fecal homogenate (anaerobic); assay type: in vitro ADME; conditions: pH 6.8, 20% human fecal homogenate, 37° C., up to 24 hours, read-out: t1/2: Human Feces anaerobic
Method: as §1, §2

[5] = 20% fecal homogenate (supernatant)

SMILES	pIC50 [1]	half-life at 20 μM [2, 5] [h]	half-life at 20 μM (Stability in rat plasma) [h]	SIF t1/2 [3] [h]	half-life at 20 μM [4, 5] [h]	half-life at 20 μM [2] [h]	half-life at 20 μM (Stability in rat plasma; pooled) [h]	half-life at 20 μM [4] [h]	half-life at 20 μM ([3]; pH 6.8, 100 fold dilution of standard SIF concentration, read-out: SIF t1/2 (converted)) [h]
CC(=O)NCCCC[C@@H]1NC(=O)[C@H](Cc2c[nH]c3c(-c4ccccc4)cccc23)NC(=O)[C@H]([C@@H](C)O)NC(=O)[C@H](CC(N)=O)NC(=O)[C@@H](NC(C)=O)C(C)(C)SSC(C)(C)[C@@H](C(=O)N[C@@H](Cc2ccc(OCCN)cc2)C(=O)N[C@@H](Cc2cnc3ccccc3c2)C(=O)N[C@@](C)(CCCCN)C(=O)N[C@@H](CCCCNC(C)=O)C(=O)N[C@@H](CC(N)=O)C(=O)N[C@H](CC(C)C)C(N)=O)NC1=O [Peptide 16, Ac-[Pen]-N-T-[W(7-Ph)]-[Lys(Ac)]-[Pen]-Phe[4-(2-aminoethoxy)]-[3Quin]-[a-MeLys]-[Lys(Ac)]-N-[(D)Leu]-NH2] (Ac-[Pen]NT[Trp(7-Ph)]K(Ac)[Pen][AEF][Ala(quinolin-3-yl)][αMeK]K(Ac)N[dL]-NH2; disulfide 1-6)	8.54	> 24	> 24	24	> 24				
CC(=O)NCCCC[C@@H]1NC(=O)[C@H](Cc2c[nH]c3c(-c4ccc(F)cc4)cccc23)NC(=O)[C@H]([C@@H](C)O)NC(=O)[C@H](CC(N)=O)NC(=O)[C@@H](NC(C)=O)C(C)(C)SSC(C)(C)[C@@H](C(=O)N[C@@H](Cc2ccc(OCCN)cc2)C(=O)N[C@@H](Cc2ccc3ccccc3c2)C(=O)N[C@@](C)(CCCCN)C(=O)N[C@@H](CCCCNC(C)=O)C(=O)N[C@@H](CC(N)=O)C(=O)N[C@H](CCCCN)C(N)=O)NC1=O [Peptide 10, Ac-[Pen]-N-T-[W(7-(4-FPh))]-[Lys(Ac)]-[Pen]-Phe[4-(2-aminoethoxy)]-[2-Nal]-[a-MeLys]-[Lys(Ac)]-N-[(D)Lys)]-NH2] (Ac-[Pen]NT[X2]K(Ac)[Pen][AEF][2Nal][αMeK]K(Ac)N[dK]-NH2; disulfide 1-6)	8.48			24		> 24	> 24	> 24	
CC(=O)NCCCC[C@@H]1NC(=O)[C@H](Cc2c[nH]c3c(-c4cccc(C)c4)cccc23)NC(=O)[C@H]([C@@H](C)O)NC(=O)[C@H](CC(N)=O)NC(=O)[C@@H](NC(C)=O)C(C)(C)SSC(C)(C)[C@@H](C(=O)N[C@@H](Cc2ccc(OCCN)cc2)C(=O)N[C@@H](Cc2ccc3ccccc3c2)C(=O)N[C@@](C)(CCCCN)C(=O)N[C@@H](CCCCNC(C)=O)C(=O)N[C@@H](CC(N)=O)C(=O)N[C@H](CCCCN)C(N)=O)NC1=O [Peptide 7, Ac-[Pen]-N-T-[W(7-(3-MePh))]-[Lys(Ac)]-[Pen]-Phe[4-(2-aminoethoxy)]-[2-Nal]-[a-MeLys]-[Lys(Ac)]-N-[(D)Lys)]-NH2] (Ac-[Pen]NT[X3]K(Ac)[Pen][AEF][2Nal][αMeK]K(Ac)N[dK]-NH2; disulfide 1-6)	8.23			24		> 24	> 24	> 24	
CC(=O)NCCCC[C@@H]1NC(=O)[C@H](Cc2c[nH]c3c(-c4ccccc4)cccc23)NC(=O)[C@H]([C@@H](C)O)NC(=O)[C@H](CCC(N)=O)NC(=O)[C@@H](NC(C)=O)CCSC[C@@H](C(=O)N[C@@H](Cc2ccc(OCCN)cc2)C(=O)N[C@@H](Cc2ccc3ccccc3c2)C(=O)N[C@@](C)(CCCCN)C(=O)N[C@@H](CCCCNC(C)=O)C(=O)N[C@@H](CC(N)=O)C(=O)N[C@H](CC(C)C)C(N)=O)NC1=O [Peptide 18, Ac-[Abu]-Q-T-[W(7-Ph)]-[Lys(Ac)]-[Cys]-Phe[4-(2-aminoethoxy)]-[2-Nal]-[a-MeLys]-[Lys(Ac)]-N-[(D)Leu]-NH2] (Ac-[Abu(4-yl)]QT[Trp(7-Ph)]K(Ac)C[AEF][2Nal][αMeK]K(Ac)N[dL]-NH2; thioether 1-6)	8.20					> 24	> 24	> 24	19.8
CC(=O)NCCCC[C@@H]1NC(=O)[C@H](Cc2c[nH]c3c(-c4ccccc4)cccc23)NC(=O)[C@H]([C@@H](C)O)NC(=O)[C@H](CC(N)=O)NC(=O)[C@@H](NC(C)=O)C(C)(C)SSC(C)(C)[C@@H](C(=O)N[C@@H](Cc2ccc(OCCN)cc2)C(=O)N[C@@H](Cc2cnc3ccccc3c2)C(=O)NC2(C(=O)N[C@@H](CCC(=O)O)C(=O)N[C@@H](CC(N)=O)C(=O)N[C@H](CC(C)C)C(N)=O)CCOCC2)NC1=O [Peptide 15, Ac-[Pen]-N-T-[W(7-Ph)]-[Lys(Ac)]-[Pen]-Phe[4-(2-aminoethoxy)]-[3Quin]-[THP]-E-N-[(D)Leu]-NH2] (Ac-[Pen]NT[Trp(7-Ph)]K(Ac)[Pen][AEF][Ala(quinolin-3-yl)][Thp]EN[dL]-NH2; disulfide 1-6)	8.61	> 24	> 24	24	> 24				
CC(=O)NCCCC[C@@H]1NC(=O)[C@H](Cc2c[nH]c3c(-c4cccc(C(F)(F)F)c4)cccc23)NC(=O)[C@H]([C@@H](C)O)NC(=O)[C@H](CC(N)=O)NC(=O)[C@@H](NC(C)=O)C(C)(C)SSC(C)(C)[C@@H](C(=O)N[C@@H](Cc2ccc(OCCN)cc2)C(=O)N[C@@H](Cc2ccc3ccccc3c2)C(=O)N[C@@](C)(CCCCN)C(=O)N[C@@H](CCCCNC(C)=O)C(=O)N[C@@H](CC(N)=O)C(=O)N[C@H](CCCCN)C(N)=O)NC1=O [Peptide 9, Ac-[Pen]-N-T-[W(7-(3-CF3Ph))]-[Lys(Ac)]-[Pen]-Phe[4-(2-aminoethoxy)]-[2-Nal]-[a-MeLys]-[Lys(Ac)]-N-[(D)Lys)]-NH2] (Ac-[Pen]NT[X1]K(Ac)[Pen][AEF][2Nal][αMeK]K(Ac)N[dK]-NH2; disulfide 1-6)	8.03			24		> 24	> 24	> 24	
CC(=O)NCCCC[C@@H]1NC(=O)[C@H](Cc2c[nH]c3c(-c4ccccc4)cccc23)NC(=O)[C@H]([C@@H](C)O)NC(=O)[C@H](CC(N)=O)NC(=O)[C@@H](NC(C)=O)C(C)(C)SSC(C)(C)[C@@H](C(=O)N[C@@H](Cc2ccc(OCCN)cc2)C(=O)N[C@@H](Cc2cnc3ccccc3c2)C(=O)NC2(C(=O)N[C@@H](CCC(=O)O)C(=O)N[C@@H](CC(N)=O)C(=O)N[C@H](CCCCN)C(N)=O)CCOCC2)NC1=O [Peptide 13, Ac-[Pen]-N-T-[W(7-Ph)]-[Lys(Ac)]-[Pen]-Phe[4-(2-aminoethoxy)]-[3Quin]-[THP]-E-N-[(D)Lys]-NH2] (Ac-[Pen]NT[Trp(7-Ph)]K(Ac)[Pen][AEF][Ala(quinolin-3-yl)][Thp]EN[dK]-NH2; disulfide 1-6)	8.81	> 24	> 24	24	> 24				
